Assays:
[1] = target: T1, M1 muscarinic receptor (Homo sapiens, UniProt P11229); assay: Functional mobilization of intracellular calcium (FLIPR), M1-CHO cells; assay type: cell-based; settings: for Emax: 100% efficacy is the maximum response obtained with the Carbachol control; for M1 Activity: CHO cells expressing M1, calcium mobilization
T1 construct: expressed in transfected cells; host or cells: CHO (M1-CHO)
T1 sequence (P11229 1-460): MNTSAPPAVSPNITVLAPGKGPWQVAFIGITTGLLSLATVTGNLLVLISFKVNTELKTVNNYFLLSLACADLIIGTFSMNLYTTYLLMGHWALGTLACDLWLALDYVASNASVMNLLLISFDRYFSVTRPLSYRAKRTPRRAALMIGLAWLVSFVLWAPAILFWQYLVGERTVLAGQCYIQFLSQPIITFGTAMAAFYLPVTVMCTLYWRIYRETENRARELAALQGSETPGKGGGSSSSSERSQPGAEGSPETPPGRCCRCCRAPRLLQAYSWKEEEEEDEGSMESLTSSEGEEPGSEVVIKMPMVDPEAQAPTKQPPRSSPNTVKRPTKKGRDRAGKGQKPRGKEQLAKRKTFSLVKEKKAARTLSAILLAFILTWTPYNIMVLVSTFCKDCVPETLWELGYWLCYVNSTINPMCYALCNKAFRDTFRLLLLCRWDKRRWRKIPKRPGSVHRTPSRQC
Method in brief: (§1)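 Recombinant CHO cells loaded with Fluo-3 AM or Calcium 3 dye; fluorescence recorded 60 s on FLIPR in pH 7.4 buffer with 1 mM probenecid, 0.5% DMSO. Agonist mode: compound alone; antagonist mode: 15 min preincubation (or co-application) then carbachol at EC80. Efficacy relative to maximal carbachol response.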

[2] = target: T2, M4 muscarinic receptor (Homo sapiens, UniProt P08173); assay: Functional mobilization of intracellular calcium (FLIPR), M4-CHO cells; assay type: cell-based; settings: for Emax: 100% efficacy is the maximum response obtained with the Carbachol control; for M4 Activity: CHO cells expressing M4, calcium mobilization
T2 construct: expressed in transfected cells; host or cells: CHO (M4-CHO)
T2 sequence (P08173 1-479): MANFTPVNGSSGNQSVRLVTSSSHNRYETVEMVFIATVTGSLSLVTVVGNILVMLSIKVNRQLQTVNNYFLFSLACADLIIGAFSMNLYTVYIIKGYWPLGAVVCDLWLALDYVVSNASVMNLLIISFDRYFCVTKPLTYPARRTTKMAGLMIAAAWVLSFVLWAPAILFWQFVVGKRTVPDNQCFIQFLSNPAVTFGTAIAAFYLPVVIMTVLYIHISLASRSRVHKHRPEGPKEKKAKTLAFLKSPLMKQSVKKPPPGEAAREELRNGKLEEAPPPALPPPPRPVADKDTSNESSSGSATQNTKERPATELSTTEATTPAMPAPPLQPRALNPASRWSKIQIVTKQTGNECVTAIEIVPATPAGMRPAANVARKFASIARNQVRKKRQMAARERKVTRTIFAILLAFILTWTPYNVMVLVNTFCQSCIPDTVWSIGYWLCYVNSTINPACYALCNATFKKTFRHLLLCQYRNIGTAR
Method in brief: as §1

For CN(C)C(=O)N1CC2(CCN(C[C@H]3CCN(c4cnccn4)C3)CC2)c2ccccc21 [compound 108], the Emax [1] was 25 to 100%, the “M1 Activity” value [1] was “+++ (activity was measured to be less than 2.0 μM)” and the Emax [2] was greater than 100%. The “M4 Activity” value [2] was “+++ (activity was measured to be less than 2.0 μM)”.
With CN(C)C(=O)N1CC2(CCN(C[C@@H]3CCN(c4cnccn4)C3)CC2)c2ccccc21 [compound 109] the Emax [1] was 25 to 100%, the “M1 Activity” value [1] was “+++ (activity was measured to be less than 2.0 μM)” and the Emax [2] was greater than 100%. For the same molecule, the “M4 Activity” value [2] was “+++ (activity was measured to be less than 2.0 μM)”.
In the case of CN(C)C(=O)N1CC2(CCN(C[C@@H]3CCN(C(=O)OC4CCOC4)C3)CC2)c2ccccc21 (some centres unmarked) [compound 110], the Emax [1] is reported as less than 25%, the “M1 Activity” value [1] is reported as “++ (activity was measured to be from 2.0 μM to 10.0 μM)” and the Emax [2] is reported as less than 25%. The “M4 Activity” value [2] was “++ (activity was measured to be from 2.0 μM to 10.0 μM)”.
For CN(C)C(=O)N1CC2(CCN(C[C@H]3CCN(C(=O)OC4CCOC4)C3)CC2)c2ccccc21 (some centres unmarked) [compound 111], the Emax [1] was less than 25%, the “M1 Activity” value [1] was “++ (activity was measured to be from 2.0 μM to 10.0 μM)” and the Emax [2] was less than 25%. The “M4 Activity” value [2] was “++ (activity was measured to be from 2.0 μM to 10.0 μM)”.
CN(C)C(=O)N1CC2(CCN(C3CCC(c4ncns4)CC3)CC2)c2ccccc21 (centres unmarked) [compound 112] was tested, and the Emax [1] was less than 25%, the “M1 Activity” value [1] was “++ (activity was measured to be from 2.0 μM to 10.0 μM)” and the Emax [2] was less than 25%. The “M4 Activity” value [2] was “+ (activity was measured to be greater than 10.0 μM)”.
CN(C)C(=O)N1CC2(CCN(C3CCN(c4cncc(-c5ccccc5O)n4)CC3)CC2)c2ccccc21 [compound 113] was tested, and the Emax [1] was 25 to 100%, the “M1 Activity” value [1] was “+++ (activity was measured to be less than 2.0 μM)” and the Emax [2] was less than 25%. The “M4 Activity” value [2] was “+ (activity was measured to be greater than 10.0 μM)”.
C=Cc1cncc(N2CCC(N3CCC4(CC3)CN(C(=O)N(C)C)c3ccccc34)CC2)n1 [compound 114] was tested, and the Emax [1] was less than 25%, the “M1 Activity” value [1] was “+ (activity was measured to be greater than 10.0 μM)” and the Emax [2] was 25 to 100%. The “M4 Activity” value [2] was “+++ (activity was measured to be less than 2.0 μM)”.
With Cc1nsc(N2CCC(C)(N3CCC4(CC3)CN(C(=O)N(C)C)c3ccccc34)CC2)n1 [compound 115] the Emax [1] was less than 25%, the “M1 Activity” value [1] was “+ (activity was measured to be greater than 10.0 μM)” and the Emax [2] was less than 25%. The “M4 Activity” value [2] was “+++ (activity was measured to be less than 2.0 μM)”.
Cc1cnc(N2CCC(N3CCC4(CC3)CN(C(=O)N(C)C)c3ccccc34)CC2)s1 [compound 116] was tested, and the Emax [1] was less than 25%, the “M1 Activity” value [1] was “+ (activity was measured to be greater than 10.0 μM)” and the Emax [2] was less than 25%. The “M4 Activity” value [2] was “+ (activity was measured to be greater than 10.0 μM)”.
With CN(C)C(=O)N1CC2(CCN(C3CCN(c4nc5ccccc5s4)CC3)CC2)c2ccccc21 [compound 117] the Emax [1] was less than 25%, the “M1 Activity” value [1] was “+ (activity was measured to be greater than 10.0 μM)” and the Emax [2] was less than 25%. The “M4 Activity” value [2] was “++ (activity was measured to be from 2.0 μM to 10.0 μM)”.
With CN(C)C(=O)N1CC2(CCN(C3CCN(c4nc5ccccc5o4)CC3)CC2)c2ccccc21 [compound 118] the Emax [1] was 25 to 100%, the “M1 Activity” value [1] was “++ (activity was measured to be from 2.0 μM to 10.0 μM)” and the Emax [2] was less than 25%. The “M4 Activity” value [2] was “++ (activity was measured to be from 2.0 μM to 10.0 μM)”.

From patent publication US8263605B2, “Modulators of muscarinic receptors” (Vertex Pharmaceutical Incorporated, priority 2006, dated 2012)
